From US20260138083A1, “CARBON DIOXIDE CONCENTRATOR” (NIPPON KAYAKU KABUSHIKI KAISHA, priority 2023, published 2026)

Experiment: Oxidation-reduction resistance evaluation (cyclic voltammetry)
Format: physicochemical
Conditions: 0.1 mol/L in 1.0 mol/L aqueous sodium hydrogen carbonate; glass-like carbon electrode, Ag/AgCl reference; sweep rate 100 mV/sec
Procedure: The fluoflavine compound represented by the formula (1-2) was dissolved in an aqueous solution (1.0 mol/L) of sodium hydrogen carbonate (manufactured by Tosoh Corporation, an industrial product) so that the concentration was 0.1 mol/L to produce an electrolyte liquid 10. The electrolyte liquid 10 was added into a sample vial for voltammetry (manufactured by BAS Inc., No. 001056), and a Teflon™ cap for voltammetry (manufactured by BAS Inc., 012671) was attached. A Pt counter electrode (manufactured by BAS Inc., No. 002222), a GCE glass-like carbon electrode (manufactured by BAS Inc., 6.0×3.0 mm, No. 002012), and a saturated KCl/silver/silver chloride reference electrode (manufactured by BAS Inc., No. 013503) were fixed with the Teflon™ cap so as to be immersed in the electrolyte liquid 10, and measurement of cyclic voltammetry was performed with a multi-electrochemical measurement system (manufactured by Hokuto Denko Co., Ltd., HZ-Pro). The potential scanning range was set to −500 mV to 700 mV, and a sweep rate was set to 100 mV/see to perform the measurement.
An electrolyte liquid 12 was prepared in the same manner except that the fluoflavine compound represented by the formula (1-2) in the oxidation-reduction resistance evaluation 1 was changed to the compound represented by the formula (1-17). […]

oxidation-reduction resistance (cyclic voltammogram, first cycle): oxidized and then decomposed
SMILES: O=S(=O)([O-])c1cc(O)c(O)c(S(=O)(=O)[O-])c1.[Na+].[Na+] [formula (1-17)]
